Data from ChEMBL document CHEMBL4507277.

What was measured:
[1] = target: Activin receptor type-2B (Homo sapiens) (UniProt Q13705); settings: Compound concentration 1000.0 nM
[2] = target: Atypical kinase COQ8B, mitochondrial (Homo sapiens) (UniProt Q96D53); settings: Compound concentration 1000.0 nM
[3] = target: Ankyrin repeat and protein kinase domain-containing protein 1 (Homo sapiens) (UniProt Q8NFD2); settings: Compound concentration 1000.0 nM
[4] = target: Calcium/calmodulin-dependent protein kinase type IV (Homo sapiens) (UniProt Q16566); settings: Compound concentration 1000.0 nM
[5] = target: Cyclin-dependent kinase 11B (Homo sapiens) (UniProt P21127); settings: Compound concentration 1000.0 nM
[6] = target: Cyclin-dependent kinase 19 (Homo sapiens) (UniProt Q9BWU1); settings: Compound concentration 1000.0 nM
[7] = target: Cyclin-dependent kinase 7 (Homo sapiens) (UniProt P50613); settings: Compound concentration 1000.0 nM
[8] = target: Cyclin-dependent kinase-like 2 (Homo sapiens) (UniProt Q92772); settings: Compound concentration 1000.0 nM
[9] = target: Cyclin-dependent kinase-like 5 (Homo sapiens) (UniProt O76039); settings: Compound concentration 1000.0 nM
[10] = target: Serine/threonine-protein kinase Chk2 (Homo sapiens) (UniProt O96017); settings: Compound concentration 1000.0 nM
[11] = target: Casein kinase I isoform epsilon (Homo sapiens) (UniProt P49674); settings: Compound concentration 1000.0 nM
[12] = target: Casein kinase I isoform gamma-2 (Homo sapiens) (UniProt P78368); settings: Compound concentration 1000.0 nM
[13] = target: Megakaryocyte-associated tyrosine-protein kinase (Homo sapiens) (UniProt P42679); settings: Compound concentration 1000.0 nM
[14] = target: Myotonin-protein kinase (Homo sapiens) (UniProt Q09013); settings: Compound concentration 1000.0 nM
[15] = tested on: Epidermal growth factor receptor (Homo sapiens), P00533 [UNDEFINED MUTATION]; settings: Compound concentration 1000.0 nM
[16] = tested on: Epidermal growth factor receptor (Homo sapiens), P00533 [L861Q]; settings: Compound concentration 1000.0 nM
[17] = target: Ephrin type-B receptor 1 (Homo sapiens) (UniProt P54762); settings: Compound concentration 1000.0 nM
[18] = tested on: Receptor-type tyrosine-protein kinase FLT3 (Homo sapiens), P36888 [UNDEFINED MUTATION]; settings: Compound concentration 1000.0 nM
[19] = target: Receptor-type tyrosine-protein kinase FLT3 (Homo sapiens) (UniProt P36888); settings: Compound concentration 1000.0 nM
[20] = target: Interleukin-1 receptor-associated kinase 4 (Homo sapiens) (UniProt Q9NWZ3); settings: Compound concentration 1000.0 nM
[21] = target: Tyrosine-protein kinase ITK/TSK (Homo sapiens) (UniProt Q08881); settings: Compound concentration 1000.0 nM
[22] = target: Mast/stem cell growth factor receptor Kit (Homo sapiens) (UniProt P10721); settings: Compound concentration 1000.0 nM
[23] = target: Mitogen-activated protein kinase kinase kinase 3 (Homo sapiens) (UniProt Q99759); settings: Compound concentration 1000.0 nM
[24] = target: MAP kinase-activated protein kinase 5 (Homo sapiens) (UniProt Q8IW41); settings: Compound concentration 1000.0 nM
[25] = tested on: Hepatocyte growth factor receptor (Homo sapiens), P08581 [M1250T]; settings: Compound concentration 1000.0 nM
[26] = target: Myosin-IIIb (Homo sapiens) (UniProt Q8WXR4); settings: Compound concentration 1000.0 nM
[27] = target: Serine/threonine-protein kinase 38-like (Homo sapiens) (UniProt Q9Y2H1); settings: Compound concentration 1000.0 nM
[28] = target: Serine/threonine-protein kinase Nek5 (Homo sapiens) (UniProt Q6P3R8); settings: Compound concentration 1000.0 nM
[29] = target: Serine/threonine-protein kinase Nek9 (Homo sapiens) (UniProt Q8TD19); settings: Compound concentration 1000.0 nM
[30] = tested on: Phosphatidylinositol 4,5-bisphosphate 3-kinase catalytic subunit alpha isoform (Homo sapiens), P42336 [E545A]; settings: Compound concentration 1000.0 nM
[31] = tested on: Phosphatidylinositol 4,5-bisphosphate 3-kinase catalytic subunit alpha isoform (Homo sapiens), P42336 [H1047Y]; settings: Compound concentration 1000.0 nM
[32] = target: Serine/threonine-protein kinase pim-1 (Homo sapiens) (UniProt P11309); settings: Compound concentration 1000.0 nM
[33] = target: Phosphatidylinositol 4-phosphate 5-kinase type-1 alpha (Homo sapiens) (UniProt Q99755); settings: Compound concentration 1000.0 nM
[34] = target: cAMP-dependent protein kinase catalytic subunit beta (Homo sapiens) (UniProt P22694); settings: Compound concentration 1000.0 nM
[35] = target: Serine/threonine-protein kinase N1 (Homo sapiens) (UniProt Q16512); settings: Compound concentration 1000.0 nM
[36] = target: Serine/threonine-protein kinase PLK3 (Homo sapiens) (UniProt Q9H4B4); settings: Compound concentration 1000.0 nM
[37] = tested on: Proto-oncogene tyrosine-protein kinase receptor Ret (Homo sapiens), P07949 [M918T]; settings: Compound concentration 1000.0 nM
[38] = target: Ribosomal protein S6 kinase alpha-3 (Homo sapiens) (UniProt P51812); settings: Compound concentration 1000.0 nM
[39] = target: Ribosomal protein S6 kinase alpha-3 (Homo sapiens) (UniProt P51812); settings: Compound concentration 1000.0 nM; remark: listed apart in the source
[40] = target: Serine/threonine-protein kinase SIK1 (Homo sapiens) (UniProt P57059); settings: Compound concentration 1000.0 nM
[41] = target: Tyrosine-protein kinase SYK (Homo sapiens) (UniProt P43405); settings: Compound concentration 1000.0 nM
[42] = target: Serine/threonine-protein kinase WNK3 (Homo sapiens) (UniProt Q9BYP7); settings: Compound concentration 1000.0 nM
[43] = target: Serine/threonine-protein kinase WNK4 (Homo sapiens) (UniProt Q96J92); settings: Compound concentration 1000.0 nM
[44] = target: Sodium-dependent dopamine transporter (Homo sapiens) (UniProt Q01959); settings: Compound concentration 10.0 uM
[45] = target: Sigma non-opioid intracellular receptor 1 (Homo sapiens) (UniProt Q99720); settings: Compound concentration 10.0 uM
Chain of Sigma non-opioid intracellular receptor 1 (Homo sapiens) (Q99720 whole entry): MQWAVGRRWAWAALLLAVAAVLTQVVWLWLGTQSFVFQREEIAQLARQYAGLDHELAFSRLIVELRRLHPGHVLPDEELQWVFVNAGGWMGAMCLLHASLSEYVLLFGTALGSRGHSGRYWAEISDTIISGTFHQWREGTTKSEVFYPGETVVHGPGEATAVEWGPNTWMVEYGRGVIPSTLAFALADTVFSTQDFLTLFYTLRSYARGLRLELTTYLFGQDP

Chain of Ribosomal protein S6 kinase alpha-3 (Homo sapiens) (P51812 whole entry): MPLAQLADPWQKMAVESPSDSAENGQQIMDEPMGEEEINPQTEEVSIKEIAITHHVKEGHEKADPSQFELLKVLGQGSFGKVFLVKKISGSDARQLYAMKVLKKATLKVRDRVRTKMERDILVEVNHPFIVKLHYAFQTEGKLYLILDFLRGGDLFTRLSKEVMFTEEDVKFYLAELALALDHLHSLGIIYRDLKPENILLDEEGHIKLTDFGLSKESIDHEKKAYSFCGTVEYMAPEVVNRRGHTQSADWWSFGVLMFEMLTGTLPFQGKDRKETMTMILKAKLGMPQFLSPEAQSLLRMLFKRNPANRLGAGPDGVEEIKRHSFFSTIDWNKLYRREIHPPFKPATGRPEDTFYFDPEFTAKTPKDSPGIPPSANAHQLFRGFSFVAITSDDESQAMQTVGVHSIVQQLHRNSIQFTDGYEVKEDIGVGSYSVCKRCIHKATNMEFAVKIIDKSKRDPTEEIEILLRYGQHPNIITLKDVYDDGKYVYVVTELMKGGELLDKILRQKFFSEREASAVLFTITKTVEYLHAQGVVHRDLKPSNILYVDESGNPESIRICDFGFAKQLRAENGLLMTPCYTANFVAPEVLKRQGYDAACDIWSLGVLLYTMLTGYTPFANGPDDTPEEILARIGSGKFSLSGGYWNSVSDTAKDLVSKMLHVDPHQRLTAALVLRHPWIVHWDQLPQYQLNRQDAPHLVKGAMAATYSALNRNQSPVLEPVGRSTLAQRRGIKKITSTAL
Chain of Cyclin-dependent kinase 7 (Homo sapiens) (P50613 whole entry): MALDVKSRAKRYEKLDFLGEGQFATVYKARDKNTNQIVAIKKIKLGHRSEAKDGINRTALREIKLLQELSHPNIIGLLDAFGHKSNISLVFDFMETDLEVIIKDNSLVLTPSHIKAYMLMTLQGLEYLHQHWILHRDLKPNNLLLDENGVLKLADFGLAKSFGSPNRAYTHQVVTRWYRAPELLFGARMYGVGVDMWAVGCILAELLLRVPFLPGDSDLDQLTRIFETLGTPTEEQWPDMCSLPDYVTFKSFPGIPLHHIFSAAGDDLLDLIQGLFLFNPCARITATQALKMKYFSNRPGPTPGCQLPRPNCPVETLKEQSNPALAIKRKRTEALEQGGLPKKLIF
Chain of Cyclin-dependent kinase 19 (Homo sapiens) (Q9BWU1 whole entry): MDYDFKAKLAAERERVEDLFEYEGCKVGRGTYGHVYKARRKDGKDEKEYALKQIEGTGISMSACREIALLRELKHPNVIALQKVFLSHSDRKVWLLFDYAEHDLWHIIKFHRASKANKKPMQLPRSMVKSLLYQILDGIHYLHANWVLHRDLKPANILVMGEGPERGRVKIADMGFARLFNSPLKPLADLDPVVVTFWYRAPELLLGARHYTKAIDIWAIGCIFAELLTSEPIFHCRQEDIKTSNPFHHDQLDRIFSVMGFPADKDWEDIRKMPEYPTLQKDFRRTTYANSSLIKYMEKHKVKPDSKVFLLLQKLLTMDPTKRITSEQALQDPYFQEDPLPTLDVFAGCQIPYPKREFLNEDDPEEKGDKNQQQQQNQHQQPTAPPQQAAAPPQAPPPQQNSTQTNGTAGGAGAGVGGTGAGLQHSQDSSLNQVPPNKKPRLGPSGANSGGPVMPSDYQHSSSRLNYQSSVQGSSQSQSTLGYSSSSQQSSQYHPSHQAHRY
Chain of Serine/threonine-protein kinase Nek9 (Homo sapiens) (Q8TD19 whole entry, canonical isoform): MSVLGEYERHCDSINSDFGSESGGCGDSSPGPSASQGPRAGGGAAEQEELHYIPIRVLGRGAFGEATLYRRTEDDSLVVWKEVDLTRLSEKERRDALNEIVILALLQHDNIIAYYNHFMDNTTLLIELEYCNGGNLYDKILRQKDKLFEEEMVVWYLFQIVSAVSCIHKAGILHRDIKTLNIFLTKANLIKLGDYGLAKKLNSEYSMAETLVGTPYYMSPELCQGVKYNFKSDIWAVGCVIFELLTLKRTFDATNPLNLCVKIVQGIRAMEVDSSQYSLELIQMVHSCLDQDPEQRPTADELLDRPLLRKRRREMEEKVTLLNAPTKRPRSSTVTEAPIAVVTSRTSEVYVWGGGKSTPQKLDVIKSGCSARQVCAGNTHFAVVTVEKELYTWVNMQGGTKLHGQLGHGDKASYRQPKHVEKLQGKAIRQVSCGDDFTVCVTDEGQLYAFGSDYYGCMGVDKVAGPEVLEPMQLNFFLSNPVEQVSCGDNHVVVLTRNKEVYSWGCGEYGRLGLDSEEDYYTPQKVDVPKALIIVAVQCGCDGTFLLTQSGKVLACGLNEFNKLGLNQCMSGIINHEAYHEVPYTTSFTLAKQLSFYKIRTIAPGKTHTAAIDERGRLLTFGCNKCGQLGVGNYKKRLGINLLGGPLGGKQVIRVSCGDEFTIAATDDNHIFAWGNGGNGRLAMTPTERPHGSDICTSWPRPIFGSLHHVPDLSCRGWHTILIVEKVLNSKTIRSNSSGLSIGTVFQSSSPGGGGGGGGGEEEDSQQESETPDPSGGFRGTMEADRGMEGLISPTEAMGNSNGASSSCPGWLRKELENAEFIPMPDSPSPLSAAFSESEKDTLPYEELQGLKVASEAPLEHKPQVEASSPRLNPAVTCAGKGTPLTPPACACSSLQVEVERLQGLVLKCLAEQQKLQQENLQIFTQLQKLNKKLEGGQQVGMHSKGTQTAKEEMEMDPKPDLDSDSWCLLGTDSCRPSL
Chain of Serine/threonine-protein kinase 38-like (Homo sapiens) (Q9Y2H1 2-464 limits assumed): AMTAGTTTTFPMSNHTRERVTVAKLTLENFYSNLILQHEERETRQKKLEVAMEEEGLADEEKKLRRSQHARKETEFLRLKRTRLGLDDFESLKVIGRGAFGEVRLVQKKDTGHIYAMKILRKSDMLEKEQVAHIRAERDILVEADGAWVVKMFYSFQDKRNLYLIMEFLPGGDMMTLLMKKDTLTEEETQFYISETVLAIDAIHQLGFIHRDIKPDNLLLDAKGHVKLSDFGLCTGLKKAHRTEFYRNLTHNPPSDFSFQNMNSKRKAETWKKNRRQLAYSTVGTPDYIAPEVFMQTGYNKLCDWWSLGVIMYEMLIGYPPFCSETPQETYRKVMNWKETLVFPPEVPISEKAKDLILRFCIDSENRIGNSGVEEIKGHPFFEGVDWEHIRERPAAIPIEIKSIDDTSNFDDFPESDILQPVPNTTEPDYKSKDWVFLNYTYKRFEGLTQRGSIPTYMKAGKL
Chain of Phosphatidylinositol 4,5-bisphosphate 3-kinase catalytic subunit alpha isoform (Homo sapiens), P42336 [E545A] (P42336 whole entry E545A, canonical isoform): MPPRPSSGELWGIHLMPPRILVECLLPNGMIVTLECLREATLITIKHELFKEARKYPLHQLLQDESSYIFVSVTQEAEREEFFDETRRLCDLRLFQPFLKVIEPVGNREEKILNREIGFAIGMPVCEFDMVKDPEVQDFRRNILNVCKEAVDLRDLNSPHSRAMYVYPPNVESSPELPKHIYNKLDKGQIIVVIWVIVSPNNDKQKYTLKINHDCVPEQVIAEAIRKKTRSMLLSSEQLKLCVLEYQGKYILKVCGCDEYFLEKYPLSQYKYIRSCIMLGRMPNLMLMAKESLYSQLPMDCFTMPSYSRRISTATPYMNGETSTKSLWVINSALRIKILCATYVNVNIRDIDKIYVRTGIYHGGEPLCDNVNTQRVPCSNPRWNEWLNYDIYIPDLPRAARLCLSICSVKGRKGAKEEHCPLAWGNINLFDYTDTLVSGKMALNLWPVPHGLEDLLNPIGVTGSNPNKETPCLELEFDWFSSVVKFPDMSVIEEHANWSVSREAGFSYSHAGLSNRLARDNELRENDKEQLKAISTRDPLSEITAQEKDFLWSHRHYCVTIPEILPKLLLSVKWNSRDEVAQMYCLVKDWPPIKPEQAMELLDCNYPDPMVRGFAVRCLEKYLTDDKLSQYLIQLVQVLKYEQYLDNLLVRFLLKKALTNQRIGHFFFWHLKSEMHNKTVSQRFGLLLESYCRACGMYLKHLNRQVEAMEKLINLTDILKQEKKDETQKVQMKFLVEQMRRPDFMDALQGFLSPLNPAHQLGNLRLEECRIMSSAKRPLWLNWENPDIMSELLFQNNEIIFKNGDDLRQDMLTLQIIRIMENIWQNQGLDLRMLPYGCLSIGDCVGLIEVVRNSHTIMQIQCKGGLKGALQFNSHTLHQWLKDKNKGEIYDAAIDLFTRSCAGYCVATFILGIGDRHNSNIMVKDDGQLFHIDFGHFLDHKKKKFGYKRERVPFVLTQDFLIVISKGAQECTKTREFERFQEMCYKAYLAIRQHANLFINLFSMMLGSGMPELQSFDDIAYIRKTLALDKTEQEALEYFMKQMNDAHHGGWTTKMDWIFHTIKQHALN
Chain of Tyrosine-protein kinase ITK/TSK (Homo sapiens) (Q08881 whole entry): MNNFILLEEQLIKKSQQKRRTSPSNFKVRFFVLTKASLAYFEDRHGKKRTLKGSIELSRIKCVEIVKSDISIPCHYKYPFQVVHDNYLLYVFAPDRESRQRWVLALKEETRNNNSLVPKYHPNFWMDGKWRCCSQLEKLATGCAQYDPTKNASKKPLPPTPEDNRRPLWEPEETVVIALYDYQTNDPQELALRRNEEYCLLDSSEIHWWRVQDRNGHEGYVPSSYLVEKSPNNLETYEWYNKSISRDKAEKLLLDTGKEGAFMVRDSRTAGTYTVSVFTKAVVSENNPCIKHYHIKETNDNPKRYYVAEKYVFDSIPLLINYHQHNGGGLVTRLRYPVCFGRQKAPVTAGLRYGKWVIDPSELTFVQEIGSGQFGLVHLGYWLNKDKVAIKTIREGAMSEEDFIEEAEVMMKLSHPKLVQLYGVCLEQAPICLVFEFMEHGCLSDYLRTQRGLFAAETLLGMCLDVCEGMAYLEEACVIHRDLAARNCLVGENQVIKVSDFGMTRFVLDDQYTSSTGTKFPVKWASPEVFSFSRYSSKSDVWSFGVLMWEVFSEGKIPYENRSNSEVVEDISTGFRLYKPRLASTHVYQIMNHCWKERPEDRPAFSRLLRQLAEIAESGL

CCS(=O)(=O)c1cc2cc(C[C@](O)(CC(C)(C)c3ccc(F)cc3C(N)=O)C(F)(F)F)[nH]c2cn1
residual activity [1]: 98% | residual activity [2]: 78% | residual activity [3]: 89% | residual activity [4]: 100% | residual activity [5]: 100% | residual activity [6]: 100% | residual activity [7]: 95% | residual activity [8]: 93% | residual activity [9]: 100% | residual activity [10]: 92% | residual activity [11]: 95% | residual activity [12]: 93% | residual activity [13]: 100% | residual activity [14]: 99% | residual activity [15]: 83% | residual activity [16]: 100% | residual activity [17]: 86% | residual activity [18]: 95% | residual activity [19]: 85% | residual activity [20]: 100% | residual activity [21]: 100% | residual activity [22]: 95% | residual activity [23]: 92% | residual activity [24]: 93% | residual activity [25]: 100% | residual activity [26]: 100% | residual activity [27]: 45% | residual activity [28]: 100% | residual activity [29]: 99% | residual activity [30]: 100% | residual activity [31]: 100% | residual activity [32]: 100% | residual activity [33]: 100% | residual activity [34]: 100% | residual activity [35]: 100% | residual activity [36]: 93% | residual activity [37]: 100% | residual activity [38]: 100% | residual activity [39]: 93% | residual activity [40]: 100% | residual activity [41]: 100% | residual activity [42]: 100% | residual activity [43]: 100% | inhibition [44]: -8.67% | inhibition [45]: 10.1%

CCS(=O)(=O)c1cc2cc(C[C@@](O)(CC(C)(C)c3ccc(F)cc3C(N)=O)C(F)(F)F)[nH]c2cn1
residual activity [1]: 100% | residual activity [2]: 100% | residual activity [3]: 70% | residual activity [4]: 100% | residual activity [5]: 77% | residual activity [6]: 100% | residual activity [7]: 99% | residual activity [8]: 90% | residual activity [9]: 77% | residual activity [10]: 84% | residual activity [11]: 97% | residual activity [12]: 95% | residual activity [13]: 100% | residual activity [14]: 85% | residual activity [15]: 69% | residual activity [16]: 100% | residual activity [17]: 92% | residual activity [18]: 86% | residual activity [19]: 100% | residual activity [20]: 100% | residual activity [21]: 96% | residual activity [22]: 100% | residual activity [23]: 90% | residual activity [24]: 81% | residual activity [25]: 90% | residual activity [26]: 79% | residual activity [27]: 38% | residual activity [28]: 100% | residual activity [29]: 83% | residual activity [30]: 99% | residual activity [31]: 95% | residual activity [32]: 97% | residual activity [33]: 100% | residual activity [34]: 99% | residual activity [35]: 85% | residual activity [36]: 99% | residual activity [37]: 98% | residual activity [38]: 100% | residual activity [39]: 100% | residual activity [40]: 100% | residual activity [41]: 92% | residual activity [42]: 100% | residual activity [43]: 84% | inhibition [44]: 2.58% | inhibition [45]: 8.26%
